Columns and labels:
Type in all cases: cell-based
human dental pulp cells [1] = experiment: Expression of inflammatory factors (RT-PCR) in LPS-treated human dental pulp cells; conditions: 10 μg/mL LPS only
Protocol: To confirm the preventive and therapeutic effects of a pharmaceutical composition (KH002) in stage 4 dental caries in which inflammation occurred after cells are affected by dental caries, human dental pulp cells were treated with lipopolysaccharide (LPS) and the pharmaceutical composition (KH002), and the expression of inflammatory factors was compared.
(§1) All experiments using human pulp cells were approved by the Institutional Review Board (IRB; S-D20140007) of the Seoul National University Dental Hospital and conducted in accordance with the guidelines and regulations of the institution. The third molars (wisdom teeth) were extracted from patients who signed the consent forms at the Seoul National University Dental Hospital, and pulp cells were isolated using a previously reported method (Choung et al., 2016). The teeth were cut open, the internal pulp was separated using forceps, and the pulp tissue was finely minced into 60-mm diameter cell culture dishes. […]
A reverse transcription polymerase chain reaction (RT-PCR) was performed to compare the expression of inflammatory factors, and the ratio of the expression level of each factor to the expression level of glyceraldehyde 3-phosphate dehydrogenase (GAPDH) was confirmed for quantitative comparison (FIG. 3).

human dental pulp cells [2] = experiment: Viability of human dental pulp cells in inflammatory environment (MTT); conditions: 10 μg/mL LPS alone, vs negative control
Protocol: To measure the cell viability, human dental pulp cells were inoculated in a 96-well plate at 5×10^3 cells/well and treated with 150 μL of a 3-(4,5-dimethyl-2-thiazolyl)-2,5-diphenyl-tetrazolium bromide (MTT, Medifab Co. Ltd.) solution for about two hours on days 1, 3, and 5, and the absorbance of the solution dissolved in DMSO was measured at 570 nm.
as §1, with “dishes. The finely minced pulp tissue was then covered with a cover glass and cultured in a cell culture medium to isolate human pulp cells.” for “dishes.”

human pulp cells = experiment: Wound-healing model of human pulp cells (scratch); conditions: LPS only, 24 hours after scratch
Protocol: Human pulp cells were inoculated in a 6-well plate at 1×10^5 cells/well, and the next day, the central portion was scratched with the tip of a 200 μL pipette, and the rate of cell growth was compared 24 hours later.
as §1, with “dishes. The finely minced pulp tissue was then covered with a cover glass and cultured in a cell culture medium to isolate human pulp cells.” for “dishes.”
Cell photographs were taken using an optical microscope using a 10× objective lens, and the photographs were analyzed using the ImageJ software program.

human dental pulp cells [3] = experiment: Mineralization ability of human dental pulp cells (alizarin red S); conditions: LPS alone
Protocol: To this end, human dental pulp cells were inoculated in each 6-well dish at 1×10^5 cells/well and then cultured in a differentiation medium containing ascorbic acid (50 μg/mL) and beta-glycerophosphate (10 mM) for 7, 14, and 21 days from the next day.
as §1, with “dishes. The finely minced pulp tissue was then covered with a covered glass and cultured in a cell culture medium to isolate human pulp cells.” for “dishes.”
To compare the amount of mineralized matrix, the samples were fixed overnight at 4° C. with 4% paraformaldehyde (PFA), then treated with 40 mM alizarin red S (pH 4.2) at 25° C. for 30 minutes. After that, 0.5 mL of sodium dodecyl sulfate dissolved in 0.5 N hydrochloric acid was applied, and the samples were placed on a shaker for 30 minutes, and the absorbance was measured at 405 nm.

lipopolysaccharide [LPS]
expression of inflammatory factors TNF-α, IL-1α, IL-1β, IL-6, CXCL10, iNOS, and COX2 (ratio to GAPDH) (human dental pulp cells [1]): significantly increased
viability of dental pulp cells (human dental pulp cells [2]): significant decrease
wound healing ability as a ratio to the control group (human pulp cells): about 50 % of the control group
size of the mineral nodules (human dental pulp cells [3]; day 21, compared to control group): significantly decreased
amount of mineralized matrix (human dental pulp cells [3]; days 7, 14, and 21, compared to control group): significantly decreased

From patent US20250195603A1, “COMPOSITION FOR PREVENTING OR TREATING DENTAL CARIES” (HYSENSBIO CO., LTD., priority 2022, published 2025)
